Source: patent US20170176446A1, “Methods for Determining the Oncogenic Condition of Cell, Uses Thereof, and Methods for Treating Cancer” (INSERM (INSTITUT NATIONAL DE LA SANTE ET DE LA RECHERCHE …, priority 2009, published 2017)

Assays:
[1] = system: MCF7 cells; assay: OCDO production by MCF7 cells incubated with [14C]CE, thin-layer chromatography; type: cell-based, human; conditions: for % CE / % CT / % OCDO: [14C]CEα, concentration given with each compound, share of labeled oxysterols
Source text: For assays 1 to 5 and in some of the examples given later in this patent application, MCF7 tumor cells, which originate from the American Tissue Culture Collection (ATCC), were used. […] It is desired to study the activity of ChEH in […] cells by silica thin-layer chromatography. The compounds that it is desired to visualize are the CE and CT compounds defined above. In order to visualize the spots corresponding to CE and CT on a chromatography plate, ^14C-labeled CE and CT compounds were synthesized.
In order to be used in assays 1 to 5 which follow, the cells are seeded into 6-well plates at a density of 80 000 cells in a volume of 2 ml. […] After the incubation time desired for the assay, the medium is collected, the cells are washed with cold PBS (phosphate buffer) (2 ml per well) which is pooled with the medium. The cells are then scraped into cold PBS (1 ml for 3 wells); the wells are again rinsed with cold PBS (1 ml for 3 wells). The cell suspension obtained is centrifuged at 1000 rpm for 5 min at 4° C. […] Throughout the rest of this description, the vehicle solvent used is the same as that defined above.
The aqueous and organic radioactivities are counted. The organic phases are brought to dryness under argon. The residue is resuspended in 60 μl of ethanol and then deposited, in a proportion of 20 μl per lane, on to the glass-backed silica plates (Whatman LK-6-DF, 20×20), which are used in the various assays (these plates having been preheated at 100° C. for 1 hour). The migration solvent used is ethyl acetate. The chromatography plates are placed in contact with a “phosphor-screen” plate in a cassette overnight. […] In order to evaluate the more or less dense nature of the spots obtained on the plates, the radioactivity is quantified by densitometry with the “Imagequant”™ computer program.
(§1) Generally, in order to establish the percentages of OCDO inhibition from the thin-layer chromatography (TLC) plates obtained as in assay 2, the radioactive metabolites are identified and quantified on the basis of said plates using a europium-sensitive plate of GP Phosphor screen type (GE Healthcare) and a Storm 840 phosphorimagor (GE Healthcare). The proportion of radiolabeled oxysterols is determined on the autoradiogram obtained by densitometry using the Image Quant 5.2 software. The percentage is calculated on the basis of the ratio between the amount of oxysterols quantified divided by the sum of the amounts of oxysterols (CEE+CE+CT+OCDO). Since the CEE (CE ester) originates exclusively from the CE, the percentage CE is calculated on the basis of the ratio (CE+CEE)/(CE+CEE+CT+OCDO).
Assay 2 given above was therefore completed by measuring the amounts of the products present when the MCF7 tumor cells are incubated as indicated in detail in assay 2.
In order to establish that the link that exists between, on the one hand, the ability of various compounds to inhibit OCDO in an MCF7 tumor cell and, on the other hand, their quality as a ChEH inhibitor, is well-founded, the inhibition coefficients Ki for ChEH relating to a certain number of products was calculated and the production of OCDO by MCF7 cells after incubation of the cells with the same products was measured according to the protocol defined in assay 2 of the present patent application.

[2] = system: MCF7 cells; assay: OCDO production by MCF7 cells incubated with [14C]CT for 24 hours (example 11); type: cell-based, human; conditions: 10 μM, control = 100
Description: as §1
The following experiments were carried out: MCF7 tumor cells were placed in the presence of 0.5 μM of [^14C]CT and were then incubated for 24 hours in the presence of one of the following products: • 1. vehicle solvent (0.1% ethanol in a PBS buffer) serving as a control (lane 1) • 2. 10 μM of progesterone • 3. 10 μM of U18666A • 4. 100 nM of TCDD • 5. 10 μM of benzo(A)pyrene • 6. 10 μM of resveratrol • 7. 10 μM of PDM2 (Ant. 1).
Thin-layer chromatographies were carried out and FIG. 24 represents the plate obtained. The OCDO production in the treated cells was quantified from the spots of the various lanes, by applying the protocol given in detail in example 7. The results of this quantification are represented by the histogram of FIG. 24.
The amounts of OCDO produced by MCF7 cells, when they are incubated according to the same protocol as defined above with other Ahr receptor antagonists, was also measured, the control test being brought to 100 and the OCDO production being expressed as % of the control (same control as above).

[3] = molecular target: T1, ChEH (Rattus norvegicus, UniProt Q9JJ46); assay: Determination of the Ki for ChEH on rat liver microsome proteins (Dixon method); type: biochemical; conditions: 150 μg rat liver microsome proteins, [14C]CEα
T1 construct: 150 μg of rat liver microsome proteins are incubated; from tissue; host or cells: rat liver microsomes
T1 sequence (Q9JJ46 1-230): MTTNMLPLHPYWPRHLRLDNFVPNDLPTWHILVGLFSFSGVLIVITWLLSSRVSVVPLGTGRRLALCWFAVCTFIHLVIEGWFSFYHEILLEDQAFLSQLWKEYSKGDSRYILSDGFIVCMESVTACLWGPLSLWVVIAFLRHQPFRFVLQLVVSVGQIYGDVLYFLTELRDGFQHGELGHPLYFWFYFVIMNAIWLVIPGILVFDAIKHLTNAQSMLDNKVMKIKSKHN

[4] = concentration in μM in parentheses after each molecule, control = 100

Compound | Ki [3] [nM] | OCDO production by MCF-7 (% control) [1, 4] [% control] | further results
CC(C)CCC[C@@H](C)[C@H]1CC[C@H]2[C@@H]3C[C@@H]4O[C@@]45C[C@@H](O)CC[C@]5(C)[C@H]3CC[C@]12C [CEα, 5,6-α-epoxycholestan-3β-ol] |  |  | % CE ([1]; MCF7 cells, three days): 31.5%; % CT ([1]; MCF7 cells, three days): 41.5%; % OCDO ([1]; MCF7 cells, three days): 27%
COc1cc(/C=C/c2ccc(F)cc2)cc(OC)c1 [Ant 5, (E)-1-(4′-fluorophenyl)-2-(3,5-dimethoxy-phenyl)ethene] |  |  | OCDO production by MCF-7 (% control) [2]: <1 % control
CCCC(C(=O)OCCN(CC)CC)(c1ccccc1)c1ccccc1 [SKF-525A, 2-diethylaminoethyl-2,2-diphenylpentanoate] | 1904 ± 11 | <1 | 
Oc1ccc(C=Cc2cc(O)cc(O)c2)cc1 [Resveratrol] |  |  | OCDO production by MCF-7 (% control) [2]: <1 % control
Fc1ccc(/C=C/c2cc(F)cc(F)c2)cc1 [Ant 3, (E)-1-(4′-fluorophenyl)-2-(3,5-fluorophenyl)-ethene] |  |  | OCDO production by MCF-7 (% control) [2]: <1 % control
CN1CCN(CCCN2c3ccccc3Sc3ccc(C(F)(F)F)cc32)CC1 [Trifluoroperazine, 10-[3-(4-methylpiperazin-1-yl)propyl]-2-(trifluoromethyl)phenothiazine] | 135 ± 7 | <1 | 
O=C(c1ccc(OCCN2CCCCC2)cc1)c1c(-c2ccc(O)cc2)sc2cc(O)ccc12 [Raloxifene, [6-hydroxy-2-(4-hydroxyphenyl)-1-benzothiophen-3-yl]-[4-(2-piperidin-1-ylethoxy)phenyl]methanone] | 35.6 ± 4 | <1 | % CE ([1]; MCF7 cells, three days): 96.5%; % CT ([1]; MCF7 cells, three days): 3%; % OCDO ([1]; MCF7 cells, three days): 0.5%
CCN(CC)CCOc1ccc(C2C[C@]3(C)C(O)CC[C@H]3[C@@H]3CCc4cc(O)ccc4[C@@H]23)cc1 (some centres unmarked) [RU 39,411, 11-[4-N,N-[diethylaminoethoxy]phenyl]estra-1,3,5(10)triene-3,17-diol] | 155 ± 8 | <1 | 
CCCCc1oc2ccccc2c1C(=O)c1cc(I)c(OCCN(CC)CC)c(I)c1 [Amiodarone, (2-butyl-1-benzofuran-3-yl)-[4-(2-diethylaminoethyloxy)-3,5-diiodophenyl]methanone] |  | 8 | 
CCN(CC)CCOc1ccc(C(O)(Cc2ccc(Cl)cc2)c2ccc(C)cc2)cc1 (centres unmarked) [Triparanol] | 39.5 ± 3 | <1 | 
CC/C(=C(\c1ccc(O)cc1)c1ccc(OCCN(C)C)cc1)c1ccccc1 [4OH-Tamoxifen, 4-[(Z)-1-[4-(2-dimethylaminoethyloxy)-phenyl]-2-phenylbut-1-enyl]phenol] | 145 ± 4 | <1 | 
CCN(CC)CCO[C@H]1CC[C@@]2(C)C(=CC[C@@H]3[C@@H]2CC[C@]2(C)C(=O)CC[C@@H]32)C1 [U-18666A, 3-beta-(2-(diethylamino)ethoxy)androst-5-en-17-one] | 90.3 ± 5 | <1 | 
Clc1ccc(/C=C/c2cc(Cl)cc(Cl)c2)cc1 [Ant 1, (E)-1-(4′-chlorophenyl)-2-(3,5-dichlorophenyl)-ethene] |  |  | OCDO production by MCF-7 (% control) [2]: <1 % control
(E)-N,3,6,6-tetramethyl-N-(naphthalen-1-ylmethyl)hept-2-en-4-yn-1-amine [Terbinafine] | 9105 ± 33 | <1 | 
CCN(CC)CCOc1ccc(/C(=C(\Cl)c2ccccc2)c2ccccc2)cc1 [Clomiphene, 2-[4-[(Z)-2-chloro-1,2-di(phenyl)ethenyl]-phenoxy]-N,N-diethylethanamine] |  | <1 | 
CC[C@H](C)C(=O)O[C@H]1C[C@@H](C)C=C2C=C[C@H](C)[C@H](CC[C@@H]3C[C@@H](O)CC(=O)O3)[C@H]21 [lovastatin] |  |  | OCDO production by the MCF7 cells ([1]; 10 μM, control brought to the value 100): less than 1
COc1ccc(/C(=C(\c2ccccc2)[N+](=O)[O-])c2ccc(OCCN3CCCC3)cc2)cc1 [Nitromiphene, 1-[2-[4-[(Z)-1-(4-methoxyphenyl)-2-nitro-2-phenylethenyl]phenoxy]ethyl]pyrrolidine] | 17.7 ± 6 | <1 | 
O=C(CCCN1CCC(O)(c2ccc(Cl)cc2)CC1)c1ccc(F)cc1 [Haloperidol, 4-(4-(4-chlorophenyl)-4-hydroxypiperidin-1-yl)-1-(4-fluorophenyl)butan-1-one] |  | 42 | 
CC(C)(c1ccccc1)c1ccc(OCCN2CCCC2)cc1 [PCPE, 1-(2-(4-(2-phenylpropan-2-yl)phenoxy)ethyl)-pyrrolidine] | 34.7 ± 8 | <1 | 
FC(F)(F)c1ccc(/C=C/c2cc(C(F)(F)F)cc(C(F)(F)F)c2)cc1 [Ant 4, (E)-1-(4′-trifluoromethylphenyl)-2-(3,5-trifluoromethylphenyl)ethene] |  |  | OCDO production by MCF-7 (% control) [2]: <1 % control
CCN(CC)CCOc1ccc(Cc2ccccc2)cc1 [Tesmilifene, 2-(4-benzylphenoxy)-N,N-diethylethanamine] | 62.4 ± 3 | <1 | % CE ([1]; MCF7 cells, three days): 80.7%; % CT ([1]; MCF7 cells, three days): 10.5%; % OCDO ([1]; MCF7 cells, three days): 8.8%
Ibogaine |  |  | OCDO production by MCF-7 (% control) [1]: 25 % control
COc1ccc(/C=C/c2cc(F)cc(F)c2)cc1 [Ant 2, (E)-1-(4′-methoxyphenyl)-2-(3,5-fluorophenyl)-ethene] |  |  | OCDO production by MCF-7 (% control) [2]: <1 % control
C[C@@H]1CN(CCCn2c3ccccc3c3ccccc32)C[C@H](C)N1 [Rimcazole, 9-[3-[(3S,5R)-3,5-dimethylpiperazin-1-yl]propyl]carbazole] | 2325 ± 8 | 12 | 
Clc1ccccc1CNC[C@H]1CC[C@H](CNCc2ccccc2Cl)CC1 [AY-9944, trans-1,4-bis(2-chlorobenzaminomethyl)-cyclohexane] | 649 ± 6 | <1 | 
CC(=O)N1CCN(c2ccc(OCC3COC(Cn4ccnc4)(c4ccc(Cl)cc4Cl)O3)cc2)CC1 (centres unmarked) [ketoconazole] |  |  | production of the epoxysterol CE and of its derivatives CT and OCDO ([1]; 10 μM ketoconazole, three days, MCF7 cells): inhibition of the production of the epoxysterol CE and of its derivatives
